# Measured values taken from PubChem BioAssay (NCI).
#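 Exposure lasted 48 hours, with cells grown in 96-well plates and compounds tested at five concentrations. At the GI50, growth is halved. TGI marks complete inhibition of growth.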
# Legend:
# Experiment in all cases: NCI-60 cell line screen, 48 h
# [1] = tested on: IGROV1 ovarian
# [2] = tested on: OVCAR-4 ovarian
# [3] = tested on: LOX IMVI melanoma
# [4] = tested on: RXF 393 renal
# [5] = tested on: OVCAR-8 ovarian
# [6] = tested on: HL-60(TB) leukemia
# [7] = tested on: UACC-257 melanoma
# [8] = tested on: SK-MEL-28 melanoma
# [9] = tested on: SK-OV-3 ovarian
# [10] = tested on: SF-295 CNS
# [11] = tested on: SK-MEL-2 melanoma
# [12] = tested on: HCT-15 colon
# [13] = tested on: MDA-MB-231 breast
# [14] = tested on: MALME-3M melanoma
# [15] = tested on: RPMI-8226 leukemia
# [16] = tested on: HS 578T breast
# [17] = tested on: A549 NSCLC
# [18] = tested on: CCRF-CEM leukemia
# [19] = tested on: HCT-116 colon
# [20] = tested on: MDA-MB-435
# [21] = tested on: SF-268 CNS
# [22] = tested on: NCI-H23 lung
# [23] = tested on: MOLT-4 leukemia
# [24] = tested on: HOP-92 NSCLC
# [25] = tested on: UACC-62 melanoma
# [26] = tested on: NCI/ADR-RES ovarian
# [27] = tested on: SW-620 colon
# [28] = tested on: COLO 205 colon
# [29] = tested on: TK-10 renal
# [30] = tested on: HCC-2998 colon
# [31] = tested on: CAKI-1 renal
# [32] = tested on: SK-MEL-5 melanoma
# [33] = tested on: SR leukemia
# [34] = tested on: NCI-H460 lung
# [35] = tested on: MCF7 breast
# [36] = tested on: K-562 leukemia
# [37] = tested on: SN12C renal
# [38] = tested on: SNB-19 CNS
# [39] = tested on: A498 renal
# [40] = tested on: U251 CNS
# [41] = tested on: T-47D breast
# [42] = tested on: DU-145 prostate
# [43] = tested on: BT-549 breast
# [44] = tested on: MDA-MB-468 breast
# [45] = tested on: NCI-H522 lung
# [46] = tested on: HOP-62 NSCLC
# [47] = tested on: 786-0 renal
# [48] = tested on: OVCAR-3 ovarian
# [49] = tested on: HT29 colon
# [50] = tested on: ACHN renal
# [51] = tested on: NCI-H226 lung
# [52] = tested on: SNB-75 CNS
# [53] = tested on: M14 melanoma
# [54] = tested on: OVCAR-5 ovarian
# [55] = tested on: SF-539 CNS
# [56] = tested on: UO-31 renal
# [57] = tested on: PC-3 prostate
# [58] = tested on: EKVX NSCLC
# [59] = tested on: KM12 colon
smiles,measurement,setting,value
COc1ccc(C(C)=C(c2ccc(OCCCN(C)C)cc2)c2ccc(OCCCN(C)C)cc2)cc1,GI50,[1],2.96 µM
same,TGI,[1],5.75 µM
same,GI50,[2],2.22 µM
same,TGI,[2],5.22 µM
same,GI50,[3],0.625 µM
same,TGI,[3],2.08 µM
same,GI50,[4],1.09 µM
same,TGI,[4],3.92 µM
same,GI50,[5],3.62 µM
same,TGI,[5],7.6 µM
same,GI50,[6],0.735 µM
same,TGI,[6],3.03 µM
same,GI50,[7],3.27 µM
same,TGI,[7],6.42 µM
same,GI50,[8],2.49 µM
same,TGI,[8],5.07 µM
same,GI50,[9],3.26 µM
same,TGI,[9],6.19 µM
same,GI50,[10],2.49 µM
same,TGI,[10],5.29 µM
same,GI50,[11],3.33 µM
same,TGI,[11],6.33 µM
same,GI50,[12],1.09 µM
same,TGI,[12],3.79 µM
same,GI50,[13],1.55 µM
same,TGI,[13],4.23 µM
same,GI50,[14],0.558 µM
same,TGI,[14],1.89 µM
same,GI50,[15],2.18 µM
same,TGI,[15],8.53 µM
same,GI50,[16],2.44 µM
same,TGI,[16],6.22 µM
same,GI50,[17],2.99 µM
same,TGI,[17],7.48 µM
same,GI50,[18],0.593 µM
same,TGI,[18],1.96 µM
same,GI50,[19],0.795 µM
same,TGI,[19],3.21 µM
same,GI50,[20],0.537 µM
same,TGI,[20],1.83 µM
same,GI50,[21],2.8 µM
same,TGI,[21],5.94 µM
same,GI50,[22],2.9 µM
same,TGI,[22],5.88 µM
same,GI50,[23],1.08 µM
same,TGI,[23],4.05 µM
same,GI50,[24],1.1 µM
same,TGI,[24],4.27 µM
same,GI50,[25],2.97 µM
same,TGI,[25],5.73 µM
same,GI50,[26],3.09 µM
same,TGI,[26],6.15 µM
same,GI50,[27],0.982 µM
same,TGI,[27],3.62 µM
same,GI50,[28],0.799 µM
same,TGI,[28],3.08 µM
same,GI50,[29],3.38 µM
same,TGI,[29],6.36 µM
same,GI50,[30],2.16 µM
same,TGI,[30],4.79 µM
same,GI50,[31],2.71 µM
same,TGI,[31],5.35 µM
same,GI50,[32],2.57 µM
same,TGI,[32],5.2 µM
same,GI50,[33],0.523 µM
same,TGI,[33],1.73 µM
same,GI50,[34],0.899 µM
same,TGI,[34],3.43 µM
same,GI50,[35],0.418 µM
same,TGI,[35],3.06 µM
same,GI50,[36],0.621 µM
same,TGI,[36],5.04 µM
same,GI50,[37],2.95 µM
same,TGI,[37],5.72 µM
same,GI50,[38],3.2 µM
same,TGI,[38],6.06 µM
same,GI50,[39],2.73 µM
same,TGI,[39],5.51 µM
same,GI50,[40],2.71 µM
same,TGI,[40],6 µM
same,GI50,[41],1.57 µM
same,TGI,[41],4.98 µM
same,GI50,[42],2.1 µM
same,TGI,[42],4.6 µM
same,GI50,[43],3.2 µM
same,TGI,[43],6.22 µM
same,GI50,[44],0.705 µM
same,TGI,[44],3.01 µM
same,GI50,[45],2.42 µM
same,TGI,[45],5.33 µM
same,GI50,[46],3.08 µM
same,TGI,[46],6.17 µM
same,GI50,[47],0.491 µM
same,TGI,[47],1.46 µM
same,GI50,[48],0.678 µM
same,TGI,[48],2.3 µM
same,GI50,[49],0.426 µM
same,TGI,[49],0.867 µM
same,GI50,[50],2.62 µM
same,TGI,[50],5.23 µM
same,GI50,[51],3 µM
same,TGI,[51],6.28 µM
same,GI50,[52],2.13 µM
same,TGI,[52],4.66 µM
same,GI50,[53],0.427 µM
same,TGI,[53],0.93 µM
same,GI50,[54],2.82 µM
same,TGI,[54],5.55 µM
same,GI50,[55],0.788 µM
same,TGI,[55],2.85 µM
same,GI50,[56],2.74 µM
same,TGI,[56],5.4 µM
same,GI50,[57],2.75 µM
same,TGI,[57],6.07 µM
same,GI50,[58],2.98 µM
same,TGI,[58],5.89 µM
same,GI50,[59],2.6 µM
same,TGI,[59],5.5 µM
